Measured values taken from patent publication US8450359B2, “Polymer-supported photosensitizers for the generation of singlet oxygen” (The Queen's University of Belfast, priority 2006, dated 2013).
Where “and” joins values, the source holds several entries; their conditions need not be identical. Equal values may be shown once. Read-outs that look alike come from different tables or passages of the source.

Legend:
[1] = system: Staphylococcus epidermidis; conditions: for time to dark activity: daylight / laboratory light series; for time to activity in the dark: intense light series; for time to activity on illumination: intense light
Protocol: (§1) Studies were performed on the photosensitising activity of porphyrin solutions against Staphylococcus epidermidis, Pseudomonas aeruginosa and Proteus mirabilis as these organisms have been isolated from culture-positive cases of infectious endophthalmitis. Studies were performed by adding a porphyrin solution to a culture of the test organism, exposing this mixture to daylight or to a more intense light source comprising 4×250 W halogen bulbs, and then taking a 1 mL aliquot at certain times to determine the viable count.
(§2) 10 mcg/mL solutions of the three porphyrins were investigated. Initially the solutions were made up at the desired concentration and then double filter sterilised.
(§3) Inocula of approximately 1×10^5 cfu/mL were utilised throughout the microbiological studies of porphyrin solutions. Activity was examined both in normal daylight conditions and using a more intense light source comprising 4×250 W halogen bulbs, cooling the temperature to around 32° C.
(§4) Unfiltered and double filter sterilised 10 mcg/mL solutions were used to examine the effect of double filtration on activity.

Pseudomonas aeruginosa = conditions: for dark activity: intense light series, dark control; for time to activity in light: intense light
Protocol: as §1, §2, §3, §4

Proteus mirabilis = conditions: for reduction in viable count: more intense light; for reduction in growth / viable count: 24 hour study, after 24 hours
Protocol: as §1, §2, §3, §4

[2] = in solution; cited from earlier work
[3] = Transient absorbance (triplet lifetime) measurements; type: physicochemical
Protocol: For the transient absorption and singlet oxygen studies, the second harmonic output from a Q-switched Nd:YAG laser was used as the excitation source and the sample was mounted at […] to the excitation beam. A pulse energy of 1 mJ was used for the measurements to avoid burning the sample. For transient absorption measurements, light from a xenon arc lamp (Applied Photophysics Ltd., 150 W) traveling at 90° to the excitation beam was directed through the sample and into a monochromator (Applied Photophysics Ltd., 1200 gr/mm grating.) fitted with an IP28 photomultiplier detector connected to a sampling oscilloscope (Tektronix TDS 3032). A 532 nm holographic notch filter (Kaiser Optical Systems Inc.) was mounted in front of the monoochromator entrance slit to reduce the effect of laser scatter on the signal. Processing of the data was carried out using SigmaPlot for Windows (Version 8.0).
Transient absorbance difference (ΔA) measurements were carried out under oxygen-bubbled conditions and after degassing by nitrogen-bubbling for 20 minutes. […] However, N2 bubbling was used in the present studies as freeze-pump-thaw was inappropriate for the polymer samples.

[4] = D2O, single exponential decay following the rapid component
Text: The ^1O2 detection system was a liquid-nitrogen-cooled Indium Gallium Arsenide (InGaAs) detector (Judson Technologies Inc, Montgomeryville, Pa., type J22D-M204-R01M-60-1.7) with a 1 mm^2 active area. The detector output was amplified using a Judson PA9 pre-amplifier and collected using a Tektronix TDS 3032 oscilloscope. To obtain acceptable signal-to-noise ratios 512 decays were summed for each reading. To minimise the effect of any inhomogeneity in the sample, readings from 8 different points were averaged, The singlet oxygen emission at 1270 nm was separated from the 1064 nm fundamental laser emission and other spurious emissions by use of a 1200 nm long pass filter (LP1200) and a 1292 nm band pass filter (BPO-1292-80), both supplied by Spectrogon UK Ltd.
Using this approach, the polymers prepared were pre-wetted in buffer prepared with D2O and dipped in porphyrin solutions also prepared from D2O.

[5] = one hour study, filtered solution
[6] = one hour study, daylight / laboratory light, unfiltered solution
[7] = one hour study, unfiltered solution
[8] = one hour study, double filter sterilised solution
[9] = one hour study, unfiltered 10 mcg/mL solution

Structure (SMILES): C[N+](C)(C)c1ccc(-c2c3nc(c(-c4ccc([N+](C)(C)C)cc4)c4ccc([nH]4)c(-c4ccc([N+](C)(C)C)cc4)c4nc(c(-c5ccc([N+](C)(C)C)cc5)c5ccc2[nH]5)C=C4)C=C3)cc1.[Cl-].[Cl-].[Cl-].[Cl-] [TMAP, tetra(4N,N,N-trimethyl-anilinium)porphine tetrachloride]
- time to dark activity [1, 5]: not active in the dark
- time to activity (no growth) in light [1, 6]: ≤ 10 min
- time to dark activity (no growth in dark control) ([1]; one hour study, daylight series, unfiltered solution, dark control): ≤ 10 min
- time to activity in the dark [1, 5]: ≤ 10 min
- time to activity in the dark [1, 7]: ≤ 10 min
- time to activity on illumination [1, 5]: ≤ 10 min
- time to activity on illumination [1, 7]: ≤ 10 min
- reduction of growth (Pseudomonas aeruginosa; 24 hour study, daylight, at 24 hours): 1 log cycle
- activity (Pseudomonas aeruginosa; one hour study, daylight): no activity
- dark activity (Pseudomonas aeruginosa; one hour study): some limited dark activity
- time to activity in light (Pseudomonas aeruginosa; [8]): ≤ 30 min
- time to activity in light (Pseudomonas aeruginosa; [9]): ≤ 30 min
- reduction in viable count (Proteus mirabilis; in 3 hours): three log cycle reduction
- activity (Proteus mirabilis; one hour study, daylight): no activity

Structure (SMILES): Cl.Cl.O=S(=O)(O)c1ccc(-c2c3nc(c(-c4ccc(S(=O)(=O)O)cc4)c4ccc([nH]4)c(-c4ccc(S(=O)(=O)O)cc4)c4nc(c(-c5ccc(S(=O)(=O)O)cc5)c5ccc2[nH]5)C=C4)C=C3)cc1 [TPPS, tetra(4-sulfonatophenyl)-porphine dihydrochloride]
- time to successful photoinactivation, complete kill ([1]; 24 hour study, daylight): 24 h
- time to activity on illumination [1, 5]: ≤ 50 min
- time to activity on illumination [1, 7]: ≤ 40 min
- reduction in the viable count (Pseudomonas aeruginosa; more intense source, by 5 hours illumination): one log cycle reduction
- φ(1O2) [2]: 0.6717
- τ1/μs ([3]; N2 bubbled): 227.5 ± 6.1 μs
- τ1/μs ([3]; O2 bubbled): 0.760 ± 0.0023 μs
- reduction in growth / viable count (Proteus mirabilis; daylight): no reduction in viable count
- reduction in viable count (Proteus mirabilis; by 5 hours): did not show any photosensitising effect

Structure (SMILES): C[n+]1ccc(-c2c3nc(c(-c4cc[n+](C)cc4)c4ccc([nH]4)c(-c4cc[n+](C)cc4)c4nc(c(-c5cc[n+](C)cc5)c5ccc2[nH]5)C=C4)C=C3)cc1.Cc1ccc(S(=O)(=O)[O-])cc1.Cc1ccc(S(=O)(=O)[O-])cc1.Cc1ccc(S(=O)(=O)[O-])cc1.Cc1ccc(S(=O)(=O)[O-])cc1 [TMPyP, tetra(4N-methylpyridyl)porphine tetratosylate salt]
- time to dark activity [1, 5]: ≤ 30 min
- time to activity in light ([1]; one hour study, daylight / laboratory light, filtered solution): ≤ 10 min
- time to activity (no growth) in light [1, 6]: ≤ 10 min
- time to activity in the dark [1, 5]: 20 min
- time to activity in the dark [1, 7]: 10 min
- time to activity on illumination [1, 5]: ≤ 10 min
- time to activity on illumination [1, 7]: ≤ 10 min
- photosensitising activity (Pseudomonas aeruginosa; 24 hour study, daylight, 10 mcg/mL solution, inoculum ca. 1×10^5 cfu/mL): no photosensitising activity
- dark activity (Pseudomonas aeruginosa; one hour study): not active in the dark
- time to activity in light (Pseudomonas aeruginosa; [8]): ≤ 40 min
- time to activity in light (Pseudomonas aeruginosa; [9]): ≤ 40 min
- τ1/μs ([3]; N2 bubbled): 161 μs and 161.0 ± 4.51 μs
- τ1/μs ([3]; O2 bubbled): 0.436 ± 0.00062 μs
- triplet lifetime, solution phase ([3]; under O2): 436 ns
- 1O2 emission decay lifetime [4]: 62 μs
- reduction in growth / viable count (Proteus mirabilis; daylight): 1 log cycle
- reduction in viable count (Proteus mirabilis; by 5 hours): three log cycle reduction
